Laboratory results: patent US20230085307A1, “PYRIDAZINONE COMPOUND AND HERBICIDE” (NISSAN CHEMICAL CORPORATION, priority 2019, published 2023)

Tests used:
Japanese bulrush [1] = assay: Test Example 1: herbicidal activity, application before weed generation under submerged conditions (Table 16, symbol B); type: in vivo, Japanese bulrush (Schoenoplectus juncoides); conditions: amount of applied herbicide 320 g/ha
Procedure, shortened: (§1)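 Alluvial soil was flooded to 4 cm depth, weed seeds were sown mixed and 2.5-leaf rice seedlings were transplanted. On sowing day, the compound's emulsion, diluted in water to a set dose, was applied to the water surface. Plants grew at 25–30 °C and were scored 0–5 after three weeks.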

oval-leafed pondweed = assay: Test Example 1: herbicidal activity, application before weed generation under submerged conditions (Table 16, symbol C); type: in vivo, oval-leafed pondweed (Monochoria vaginalis); conditions: amount of applied herbicide 320 g/ha
Procedure, shortened: as §1

Japanese bulrush [2] = assay: Test Example 2: herbicidal activity, application during weed generation under submerged conditions (Table 17, symbol B); type: in vivo, Japanese bulrush (Schoenoplectus juncoides); conditions: AAH 320 g/ha; application during weed generation, submerged conditions
Procedure, shortened: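 3-wk visual-criteria score after one water-surface dose. Emulsion formulation, water-diluted to set rate; applied at 1–2 leaf stage; alluvial soil, 4 cm standing water; seeds co-sown; greenhouse 25–30° C.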

Chinese sprangletop = assay: Test Example 3: herbicidal effect by foliage application, Wagner pot (Table 18, symbol D); type: in vivo, chinese sprangletop (Leptochloa chinensis); conditions: for herbicidal effect on Chinese sprangletop (D): 320 g/ha
Procedure, shortened: (§2)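 Plants were sown in alluvial soil held under 0.1–0.5 cm standing water and grown 14 days in a greenhouse at 25–30 °C. An emulsifiable formulation, water-diluted to the set dose, was then sprayed onto the foliage, and effects were scored three weeks later using previously defined criteria.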

rice flat sedge = assay: Test Example 3: herbicidal effect by foliage application, Wagner pot (Table 18, symbol E); type: in vivo, rice flat sedge (Cyperus iria); conditions: for herbicidal effect on rice flat sedge (E): 320 g/ha
Procedure, shortened: as §2

green foxtail = assay: Test Example 4: herbicidal effect by soil treatment (Table 19, symbol G); type: in vivo, green foxtail (Setaria viridis); conditions: amount of applied herbicide 320 g/ha
Procedure, shortened: (§3)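 Scoring uses the grading scale of an earlier test, three weeks post-application. Treatment consists of spraying a diluted emulsion formulation across the surface of sterilized diluvial soil in which seeds are buried near 1.5 cm deep; boxes are kept in a greenhouse between 25° C. and 30° C.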

wild oat [3] = assay: Test Example 4: herbicidal effect by soil treatment (Table 19, symbol I); type: in vivo, wild oat (Avena fatua); conditions: amount of applied herbicide 320 g/ha
Procedure, shortened: as §3

Italian ryegrass = assay: Test Example 4: herbicidal effect by soil treatment (Table 19, symbol K); type: in vivo, Italian ryegrass (Lolium multiflorum); conditions: amount of applied herbicide 320 g/ha
Procedure, shortened: as §3

redroot pigweed [4] = assay: Test Example 4: herbicidal effect by soil treatment (Table 19, symbol N); type: in vivo, redroot pigweed (Amaranthus retroflexus); conditions: amount of applied herbicide 320 g/ha
Procedure, shortened: as §3

chickweed = assay: Test Example 4: herbicidal effect by soil treatment (Table 19, symbol P); type: in vivo, common chickweed (Stellaria media); conditions: amount of applied herbicide 320 g/ha
Procedure, shortened: as §3

southern crabgrass = assay: Test Example 5: herbicidal effect by foliage application, plastic box (Table 20, symbol F); type: in vivo, southern crabgrass (Digitaria ciliaris); conditions: foliage application, 320 g/ha; for F: southern crabgrass, herbicidal effect grade: three weeks after application
Procedure, shortened: (§4)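 Post-emergence foliar test in sterilized diluvial soil. Compound applied as water-diluted emulsion at a predetermined rate to 14-day-old plants; evaluation at three weeks.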

wild oat [5] = assay: Test Example 5: herbicidal effect by foliage application, plastic box (Table 20, symbol I); type: in vivo, wild oat (Avena fatua); conditions: foliage application, 320 g/ha; for I: wild oat, herbicidal effect grade: three weeks after application
Procedure, shortened: as §4

windgrass = assay: Test Example 5: herbicidal effect by foliage application, plastic box (Table 20, symbol L); type: in vivo, windgrass (Apera spica-venti); conditions: foliage application, 320 g/ha; for L: windgrass, herbicidal effect grade: three weeks after application
Procedure, shortened: as §4

redroot pigweed [6] = assay: Test Example 5: herbicidal effect by foliage application, plastic box (Table 20, symbol N); type: in vivo, redroot pigweed (Amaranthus retroflexus); conditions: foliage application, 320 g/ha; for N: redroot pigweed, herbicidal effect grade: three weeks after application
Procedure, shortened: as §4

lambsquarters = assay: Test Example 5: herbicidal effect by foliage application, plastic box (Table 20, symbol O); type: in vivo, lambsquarters (Chenopodium album); conditions: foliage application, 320 g/ha; for O: lambsquarters, herbicidal effect grade: three weeks after application
Procedure, shortened: as §4

persian speedwell = assay: Test Example 5: herbicidal effect by foliage application, plastic box (Table 20, symbol R); type: in vivo, Persian speedwell (Veronica persica); conditions: foliage application, 320 g/ha; for R: persian speedwell, herbicidal effect grade: three weeks after application
Procedure, shortened: as §4

[7] = amount of applied herbicide 320 g/ha
[8] = evaluated 3 weeks after application

Row | Compound | Herbicidal effect, B: Japanese bulrush (Japanese bulrush [1]) | Herbicidal effect, C: oval-leafed pondweed (oval-leafed pondweed) | herbicidal effect rating, B: Japanese bulrush (Japanese bulrush [2]) | herbicidal effect on Chinese sprangletop (D) (Chinese sprangletop) | herbicidal effect on rice flat sedge (E) (rice flat sedge) | G: green foxtail, herbicidal effect grade (green foxtail) | I: wild oat, herbicidal effect grade (wild oat [3]) | K: Italian ryegrass, herbicidal effect grade (Italian ryegrass) | N: redroot pigweed, herbicidal effect grade (redroot pigweed [4]) | P: chickweed, herbicidal effect grade (chickweed) | F: southern crabgrass, herbicidal effect grade (southern crabgrass) | I: wild oat, herbicidal effect grade (wild oat [5]) | L: windgrass, herbicidal effect grade (windgrass) | N: redroot pigweed, herbicidal effect grade (redroot pigweed [6]) | O: lambsquarters, herbicidal effect grade (lambsquarters) | R: persian speedwell, herbicidal effect grade (persian speedwell) | other results
1 | COc1cc(F)ccc1-c1sc2cc(Cl)ccc2c1-c1c(O)c(C)nn(C)c1=O [3-043] | 1 (Herbicidal rate of 5% or more and less than 20%) | 2 (Herbicidal rate of 20% or more and less than 40%) | 0 (Herbicidal rate of 5% or less (almost no effect)) | 3 (Herbicidal rate of 40% or more and less than 70%) | 5 (Herbicidal rate of 90% or more (almost completely withered)) | 4 (Herbicidal rate of 70% or more and less than 90%) | 0 (Herbicidal rate of 5% or less (almost no effect)) | 1 (Herbicidal rate of 5% or more and less than 20%) | 4 (Herbicidal rate of 70% or more and less than 90%) | 4 (Herbicidal rate of 70% or more and less than 90%) | 0 (Herbicidal rate of 5% or less (almost no effect)) | 4 (Herbicidal rate of 70% or more and less than 90%) | 5 (Herbicidal rate of 90% or more (almost completely withered)) | 2 (Herbicidal rate of 20% or more and less than 40%) | 4 (Herbicidal rate of 70% or more and less than 90%) | 5 (Herbicidal rate of 90% or more (almost completely withered)) | 
2 | CCOc1cc(F)ccc1-c1sc2cc(Cl)ccc2c1-c1c(O)c(C)nn(C)c1=O [3-045] | 1 (Herbicidal rate of 5% or more and less than 20%) | 0 (Herbicidal rate of 5% or less (almost no effect)) | 2 (Herbicidal rate of 20% or more and less than 40%) | 4 (Herbicidal rate of 70% or more and less than 90%) | 5 (Herbicidal rate of 90% or more (almost completely withered)) | 4 (Herbicidal rate of 70% or more and less than 90%) | 0 (Herbicidal rate of 5% or less (almost no effect)) | 0 (Herbicidal rate of 5% or less (almost no effect)) | 3 (Herbicidal rate of 40% or more and less than 70%) | 4 (Herbicidal rate of 70% or more and less than 90%) | 5 (Herbicidal rate of 90% or more (almost completely withered)) | 5 (Herbicidal rate of 90% or more (almost completely withered)) | 5 (Herbicidal rate of 90% or more (almost completely withered)) | 4 (Herbicidal rate of 70% or more and less than 90%) | 3 (Herbicidal rate of 40% or more and less than 70%) | 5 (Herbicidal rate of 90% or more (almost completely withered)) | 
3 | CCCOc1ccc2c(-c3c(O)c(C)nn(C)c3=O)c(-c3ccccc3OC)sc2c1 [3-099] | 5 (Herbicidal rate of 90% or more (almost completely withered)) | 5 (Herbicidal rate of 90% or more (almost completely withered)) | 4 (Herbicidal rate of 70% or more and less than 90%) | 5 (Herbicidal rate of 90% or more (almost completely withered)) | 5 (Herbicidal rate of 90% or more (almost completely withered)) | 5 (Herbicidal rate of 90% or more (almost completely withered)) | 0 (Herbicidal rate of 5% or less (almost no effect)) | 5 (Herbicidal rate of 90% or more (almost completely withered)) | 5 (Herbicidal rate of 90% or more (almost completely withered)) | 3 (Herbicidal rate of 40% or more and less than 70%) | 5 (Herbicidal rate of 90% or more (almost completely withered)) | 2 (Herbicidal rate of 20% or more and less than 40%) | 5 (Herbicidal rate of 90% or more (almost completely withered)) | 5 (Herbicidal rate of 90% or more (almost completely withered)) | 5 (Herbicidal rate of 90% or more (almost completely withered)) | 5 (Herbicidal rate of 90% or more (almost completely withered)) | 
4 | COCCOc1ccc(-c2oc3ccc(F)cc3c2-c2c(O)c(C)nn(C)c2=O)cc1 [9-045] | 5 (Herbicidal rate of 90% or more (almost completely withered)) | 5 (Herbicidal rate of 90% or more (almost completely withered)) | 3 (Herbicidal rate of 40% or more and less than 70%) |  |  | 5 (Herbicidal rate of 90% or more (almost completely withered)) | 0 (Herbicidal rate of 5% or less (almost no effect)) | 5 (Herbicidal rate of 90% or more (almost completely withered)) | 5 (Herbicidal rate of 90% or more (almost completely withered)) | 1 (Herbicidal rate of 5% or more and less than 20%) |  |  |  |  |  |  | Herbicidal effect on D (Chinese sprangletop), foliage application (Chinese sprangletop; [7]): 3 (Herbicidal rate of 40% or more and less than 70%); Herbicidal effect on E (rice flat sedge), foliage application (rice flat sedge; [7]): 5 (Herbicidal rate of 90% or more (almost completely withered)); F (southern crabgrass) herbicidal effect grade (southern crabgrass; [8]): 5 (Herbicidal rate of 90% or more (almost completely withered)); I (wild oat) herbicidal effect grade (wild oat [5]; [8]): 2 (Herbicidal rate of 20% or more and less than 40%); L (windgrass) herbicidal effect grade (windgrass; [8]): 3 (Herbicidal rate of 40% or more and less than 70%); N (redroot pigweed) herbicidal effect grade (redroot pigweed [6]; [8]): 5 (Herbicidal rate of 90% or more (almost completely withered)); O (lambsquarters) herbicidal effect grade (lambsquarters; [8]): 5 (Herbicidal rate of 90% or more (almost completely withered)); R (persian speedwell) herbicidal effect grade (persian speedwell; [8]): 5 (Herbicidal rate of 90% or more (almost completely withered))
